Structures can show the parent of a compound that is named as a salt.
Assays:
[1] = system: Candida albicans; test: Activity against crop candidosis in turkeys (dose whereby crops of 50% of animals were completely negative); assay type: in vivo; details: medicated feed for 13 consecutive days
Experimental: Experiment B: Activity of Compounds (I) Against Crop Candidosis in Turkeys
Turkeys of 14 days old were infected in the crop with 4.10^6 Candida albicans cells, grown on Sabouraud broth for 48 hours at 37° C. and diluted with saline. The volume of the inoculum was 1 ml. The drug under investigation were premixed in 500 mg of lacton and thereafter admixed in 1000 g of meal without any additives. The concentration of the drug under investigation in the meal was expressed in mg/kg.
The animals were given the medicated feed for 13 consecutive days starting on the day of infection. At the end of the experiment all animals were sacrificed. At autopsy the crops were removed, emptied and grinded in an ultra-turrax mixer in 15 ml of sterile saline. Colony counting was done on Sabouraud agar and the results given in the Tables I, II and III represent the ED50, i.e., the dose of the drug whereby the crops of 50% of the animals were completely negative for Candida albicans.

[2] = system: Candida albicans; test: Activity against vaginal candidosis in rats (lowest oral dose active at the 14th day after infection); assay type: in vivo, Female Wistar rats; parameters: lowest effective oral dose (vaginal candidosis in rats): unit not given here; details: oral once a day for two days, active at 14th day after infection; for lowest effective oral dose (vaginal candidosis in rats): Table I; for minimal effective dose: Candida albicans, 336 h
Experimental: Experiment A: Activity of Compounds (I) Against Vaginal Candidosis in Rats
Female Wistar rats of ±100 g body weight were used. They were ovariectomized and hysterectomized and after three weeks of recovery, 100 μg of oestradiol undecylate in sesame oil was given subcutaneously once a week for 3 consecutive weeks. The thus induced pseudooestrus was controlled by microscopic examination of vaginal smears. Food and water were left available ad libitum.
The rats were infected intravaginally with 8.10^5 cells of Candida albicans, grown on Sabouraud broth for 48 hours at 37° C. and diluted with saline. The date of infection varied from day +25 to day +32 after surgical intervention, depending on the appearance of signs of induced pseudo-oestrus.
The drugs under investigation were administered orally once a day for two days starting from the day of infection. For each experiment there were placebo treated controls. The results were assessed by taking vaginal smears with sterile swabs on several days after infection. The swabs were put into Sabouraud broth in petri-dishes and incubated for 48 hours a 37° C. If no growth of Candida albicans occured, i.e., when the animals were negative at the end of the experiment, this was due to drug administration because it never happened in placebo treated controls.
The Tables I, II and III below give the lowest oral dose of the drug under investigation which was found active at the 14th day after infection.

Row | SMILES | ED50 (crop candidosis in turkeys) ([1]; Table I) | lowest effective oral dose (vaginal candidosis in rats) [2] | other results
1 | O=C(Nc1ccc(OC[C@H]2CO[C@](Cn3ccnc3)(c3ccc(Cl)cc3Cl)O2)cc1)c1ccccc1 (relative stereo) | 63 mg/kg of feed | 5 | –
2 | O=C(Nc1ccc(OC[C@H]2CO[C@](Cn3ccnc3)(c3ccc(Cl)cc3Cl)O2)cc1)c1ccc(F)cc1 (relative stereo) | 16 mg/kg of feed | 5 | –
3 | O=C(Nc1ccc(OC[C@H]2CO[C@](Cn3ccnc3)(c3ccc(Cl)cc3Cl)O2)cc1)c1ccc(Cl)cc1 (relative stereo) | 31 mg/kg of feed | – | –
4 | O=CN1CCN(c2ccc(OC[C@H]3CO[C@](Cn4ccnc4)(c4ccc(Cl)cc4Cl)O3)cc2)CC1 (relative stereo) | – | < 10 | –
5 | NC(=O)N1CCN(c2ccc(OC[C@H]3CO[C@](Cn4ccnc4)(c4ccc(Cl)cc4Cl)O3)cc2)CC1 (relative stereo) | 125 mg/kg of feed | 5 | –
6 | CNC(=O)N1CCN(c2ccc(OC[C@H]3CO[C@](Cn4ccnc4)(c4ccc(Cl)cc4Cl)O3)cc2)CC1 (relative stereo) | 16 mg/kg of feed | 2.5 | –
7 | CCNC(=O)N1CCN(c2ccc(OC[C@H]3CO[C@](Cn4ccnc4)(c4ccc(Cl)cc4Cl)O3)cc2)CC1 (relative stereo) | 125 mg/kg of feed | 10 | –
8 | CNC(=S)N1CCN(c2ccc(OC[C@H]3CO[C@](Cn4ccnc4)(c4ccc(Cl)cc4Cl)O3)cc2)CC1 (relative stereo) | 125 mg/kg of feed | 2.5 | –
9 | COC(=O)N1CCN(c2ccc(OC[C@H]3CO[C@](Cn4ccnc4)(c4ccc(Cl)cc4Cl)O3)cc2)CC1 (relative stereo) | 8 mg/kg of feed | 2.5 | –
10 | CN1CCN(c2ccc(OC[C@H]3CO[C@](Cn4ccnc4)(c4ccc(Cl)cc4Cl)O3)cc2)CC1 (relative stereo) | – | 2.5 | –
11 | CC(C)CN1CCN(c2ccc(OC[C@H]3CO[C@](Cn4ccnc4)(c4ccc(Cl)cc4Cl)O3)cc2)CC1 (relative stereo) | 16 mg/kg of feed | – | –
12 | CC(C)N1CCN(c2ccc(OC[C@H]3CO[C@](Cn4ccnc4)(c4ccc(Cl)cc4Cl)O3)cc2)CC1 (relative stereo) | – | 2.5 | –
13 | CCCCN1CCN(c2ccc(OC[C@H]3CO[C@](Cn4ccnc4)(c4ccc(Cl)cc4Cl)O3)cc2)CC1 (relative stereo) | 31 mg/kg of feed | – | –
14 | CCCN1CCN(c2ccc(OC[C@H]3CO[C@](Cn4ccnc4)(c4ccc(Cl)cc4Cl)O3)cc2)CC1 (relative stereo) | 16 mg/kg of feed | 2.5 | –
15 | CS(=O)(=O)N1CCN(c2ccc(OC[C@H]3CO[C@](Cn4ccnc4)(c4ccc(Cl)cc4Cl)O3)cc2)CC1 (relative stereo) | 31 mg/kg of feed | 1.25 | –
16 | O=S(=O)(Cc1ccccc1)N1CCN(c2ccc(OC[C@H]3CO[C@](Cn4ccnc4)(c4ccc(Cl)cc4Cl)O3)cc2)CC1 (relative stereo) | 16 mg/kg of feed | – | –
17 | NC(=O)CN1CCN(c2ccc(OC[C@H]3CO[C@](Cn4ccnc4)(c4ccc(Cl)cc4Cl)O3)cc2)CC1 (relative stereo) | – | 1.25 | –

Row | SMILES | ED50 (crop candidosis in turkeys) ([1]; Table I) | lowest effective oral dose (vaginal candidosis in rats) [2] | other results
18 | CCOC(=O)N1CCN(c2cccc(OC[C@H]3CO[C@](Cn4ccnc4)(c4ccc(Cl)cc4Cl)O3)c2)CC1 (relative stereo) | – | – | minimal effective dose ([2]; Table III): 2.5 mg/kg
19 | CCCN1CCN(c2ccc(OC[C@H]3CO[C@](Cn4cncn4)(c4ccc(Cl)cc4Cl)O3)cc2)CC1 (relative stereo) [(CH2)2CH3] | – | – | ED50 (crop candidosis in turkeys) ([1]; Table II): 16 mg/kg of feed
20 | CCCCN1CCN(c2ccc(OC[C@H]3CO[C@](Cn4cncn4)(c4ccc(Cl)cc4Cl)O3)cc2)CC1 (relative stereo) [(CH2)3CH3] | – | – | ED50 (crop candidosis in turkeys) ([1]; Table II): 16 mg/kg of feed
21 | CC(C)N1CCN(c2ccc(OC[C@H]3CO[C@](Cn4cncn4)(c4ccc(Cl)cc4Cl)O3)cc2)CC1 (relative stereo) [CH(CH3)2] | – | – | minimal effective dose ([2]; Table II): 2.5 mg/kg
22 | CCCC(=O)N1CCN(c2ccc(OC[C@H]3CO[C@](Cn4cncn4)(c4ccc(Cl)cc4Cl)O3)cc2)CC1 (relative stereo) [CO(CH2)2CH3, cis-1-{4-[2-(2,4-dichlorophenyl)-2-(1H-1,2,4-triazol-1-ylmethyl)-1,3-dioxolan-4-ylmethoxy]phenyl}-4-(1-oxobutyl)piperazine dihydrochloride] | – | – | ED50 (crop candidosis in turkeys) ([1]; Table II): 16 mg/kg of feed
23 | CCC(=O)N1CCN(c2ccc(OC[C@H]3CO[C@](Cn4cncn4)(c4ccc(Cl)cc4Cl)O3)cc2)CC1 (relative stereo) [COC2 H5, cis-1{4-[2-(2,4-dichlorophenyl)-2-(1H-1,2,4-triazol-1-ylmethyl)-1,3-dioxolan-4-ylmethoxy]phenyl}-4-(1-oxopropyl)piperazine dihydrochloride] | – | – | ED50 (crop candidosis in turkeys) ([1]; Table II): 8 mg/kg of feed
24 | O=C(c1ccccc1)N1CCN(c2ccc(OC[C@H]3CO[C@](Cn4cncn4)(c4ccc(Cl)cc4Cl)O3)cc2)CC1 (relative stereo) [COC6 H5, cis-1-benzoyl-4-{4-[2-(2,4-dichlorophenyl)-2-(1H-1,2,4-triazol-1-ylmethyl)-1,3-dioxolan-4-ylmethoxy]phenyl}piperazine] | – | – | minimal effective dose ([2]; Table II): 1.25 mg/kg
25 | CCOC(=O)N1CCN(c2ccc(OC[C@H]3CO[C@](Cn4cncn4)(c4ccc(Cl)cc4Cl)O3)cc2)CC1 (relative stereo) [COOC2 H5, cis-ethyl 4-{4-[2-(2,4-dichlorophenyl)-2-(1H-1,2,4-triazol-1-ylmethyl)-1,3-dioxolan-4-ylmethoxy]phenyl}1-piperazinecarboxylate dihydrochloride] | – | – | ED50 (crop candidosis in turkeys) ([1]; Table II): 8 mg/kg of feed
26 | O=C(Oc1ccccc1)N1CCN(c2ccc(OC[C@H]3CO[C@](Cn4cncn4)(c4ccc(Cl)cc4Cl)O3)cc2)CC1 (relative stereo) [COOC6 H5, cis-phenyl 4-{4-[2-(2,4-dichlorophenyl)-2-(1H-1,2,4-triazol-1-ylmethyl)-1,3-dioxolan-4-ylmethoxy]phenyl}-1-piperazinecarboxylate] | – | – | ED50 (crop candidosis in turkeys) ([1]; Table II): 16 mg/kg of feed
27 | COC(=O)N1CCN(c2ccc(OC[C@H]3CO[C@](Cn4cncn4)(c4ccc(Cl)cc4Cl)O3)cc2)CC1 (relative stereo) [COOCH 3, cis-methyl 4-{4-[2-(2,4-dichlorophenyl)-2-(1H-1,2,4-triazol-1-ylmethyl)-1,3-dioxolan-4-ylmethoxy]phenyl}-1-piperazinecarboxylate] | – | – | ED50 (crop candidosis in turkeys) ([1]; Table II): 8 mg/kg of feed
28 | CNc1ccc(OC[C@H]2CO[C@](Cn3ccnc3)(c3ccc(Cl)cc3Cl)O2)cc1 (relative stereo) [NHCH3, cis-4-[2-(2,4-dichlorophenyl)-2-(1H-imidazol-1-ylmethyl)-1,3-dioxolan-4-ylmethoxy]-N-methylbenzenamine] | – | 5 | –
29 | NC(=S)Nc1ccc(OC[C@H]2CO[C@](Cn3ccnc3)(c3ccc(Cl)cc3Cl)O2)cc1 (relative stereo) [NHCSNH2, cis-N-{4-[2-(2,4-dichlorophenyl)-2-(1H-imidazol-1-yl-methyl)-1,3-dioxolan-4-ylmethoxy]phenyl}thiourea] | – | 20 | –
30 | O=S(=O)(Cc1ccccc1)N1CCN(c2ccc(OC[C@H]3CO[C@](Cn4cncn4)(c4ccc(Cl)cc4Cl)O3)cc2)CC1 (relative stereo) [SO2CH2C6H5, cis-1-{4-[2-(2,4-dichlorophenyl)-2-(1H-1,2,4-triazol-1-ylmethyl)-1,3-dioxolan-4-ylmethoxy]phenyl}-4-(phenylmethylsulfonyl)piperazine monohydrate] | – | – | ED50 (crop candidosis in turkeys) ([1]; Table II): 16 mg/kg of feed
31 | CCN1CCN(c2ccc(OC[C@H]3CO[C@](Cn4ccnc4)(c4ccc(Cl)cc4Cl)O3)cc2)CC1 (relative stereo) [drawing 49] | – | < 2.5 | –
32 | COc1ccc(C2(Cn3ccnc3)OCC(COc3ccc(N4CCN(C(C)=O)CC4)cc3)O2)cc1 (stereo not drawn) [1-acetyl-4-{4-[2-(1H-imidazol-1-ylmethyl)-2-(4-methoxyphenyl)-1,3-dioxolan-4-ylmethoxy]phenyl}piperazine] | – | – | ED50 (crop candidosis in turkeys) ([1]; Table III): 31 mg/kg of feed
33 | CCOC(=O)N1CCN(c2ccc(OCC3COC(Cn4ccnc4)(c4ccc(OC)cc4)O3)cc2)CC1 (stereo not drawn) [ethyl 4-{4-[2-(1H-imidazol-1-ylmethyl)-2-(4-methoxyphenyl)-1,3-dioxolan-4-ylmethoxy]phenyl}-1-piperazinecarboxylate (E)-2-butenedioate (2:1)] | – | – | minimal effective dose ([2]; Table III): 2.5 mg/kg

— patent US4223036A, “1-(1,3-Dioxolan-2-ylmethyl)-1H-1,2,4-triazoles” (Janssen Pharmaceutica N.V., priority 1979, dated 1980)
